# Test results as given in ChEMBL document CHEMBL1201862, “PubChem BioAssay data set” (2004).
# The source made the active and inactive calls.
# Assays:
# [1] = biological target: T1, Streptokinase A (Streptococcus pyogenes serotype M1, UniProt P10520); assay: S. pyogenes streptokinase expression inhibitors, potency, dose response, plasminogen activation absorbance, OD405 (AID 1914); assay type: functional, Streptococcus pyogenes M1 GAS;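 further: secreted streptokinase activity via plasminogen activation per viability signal from cell pellet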
# T1 sequence (P10520 whole entry): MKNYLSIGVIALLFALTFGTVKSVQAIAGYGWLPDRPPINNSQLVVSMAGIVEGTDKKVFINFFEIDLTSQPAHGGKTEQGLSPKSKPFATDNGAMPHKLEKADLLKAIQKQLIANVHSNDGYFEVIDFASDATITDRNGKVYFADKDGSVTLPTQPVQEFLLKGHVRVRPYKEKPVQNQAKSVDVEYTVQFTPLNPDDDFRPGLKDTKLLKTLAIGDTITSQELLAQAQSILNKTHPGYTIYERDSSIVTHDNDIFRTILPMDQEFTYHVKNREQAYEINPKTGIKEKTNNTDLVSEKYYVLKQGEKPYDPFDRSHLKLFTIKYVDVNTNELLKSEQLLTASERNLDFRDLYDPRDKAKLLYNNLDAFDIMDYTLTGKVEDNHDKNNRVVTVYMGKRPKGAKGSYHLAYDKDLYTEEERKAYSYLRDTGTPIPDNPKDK
# [2] = test system: Streptococcus sp. 'group A'; assay: growth inhibition of control SK(-) GAS strain, dose response, counter-screen for streptokinase expression inhibitor project, luminescence, kanamycin, BacTiterGlo, confirmation (AID 1900); assay type: functional, organism-based
# [3] = inhibitors of intracellular T. cruzi replication, confirmation, NIH3T3 host cells, beta-gal luminescence (AID 2044); assay type: functional, cell-based;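 further: intracellular parasites grown in NIH/3T3 mouse fibroblasts as host cells; luminescent beta-galactosidase reporter signal from transgenic T. cruzi replicating inside host cells; inhibitors lower the luminescence signal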
# [4] = test system: Vero; assay: cells; assay type: functional; conditions: Chlorocebus sabaeus
# [5] = cytotoxicity toward NIH3T3 fibroblasts, dose response, counter-screen, cell-based, ATP luminescence, mouse fibroblasts (AID 2010); assay type: functional;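 further: cells exposed to compound for about 90 hours before reading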
# [6] = test system: Streptococcus; assay: Group A Streptococcus viability loss, dose response, counter-screen for streptokinase expression inhibitor project, luminescence, BacTiterGlo (AID 1915); assay type: functional, organism-based;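 further: potency for reduction of bacterial viability or growth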
# [7] = biological target: T2, Replicative DNA helicase DnaB (Mycobacterium tuberculosis, UniProt P9WMR3); assay: DnaB intein splicing inhibitors, dose response, biochemical, cell-free fluorescence (AID 449749); assay type: functional
# T2 sequence (P9WMR3 whole entry): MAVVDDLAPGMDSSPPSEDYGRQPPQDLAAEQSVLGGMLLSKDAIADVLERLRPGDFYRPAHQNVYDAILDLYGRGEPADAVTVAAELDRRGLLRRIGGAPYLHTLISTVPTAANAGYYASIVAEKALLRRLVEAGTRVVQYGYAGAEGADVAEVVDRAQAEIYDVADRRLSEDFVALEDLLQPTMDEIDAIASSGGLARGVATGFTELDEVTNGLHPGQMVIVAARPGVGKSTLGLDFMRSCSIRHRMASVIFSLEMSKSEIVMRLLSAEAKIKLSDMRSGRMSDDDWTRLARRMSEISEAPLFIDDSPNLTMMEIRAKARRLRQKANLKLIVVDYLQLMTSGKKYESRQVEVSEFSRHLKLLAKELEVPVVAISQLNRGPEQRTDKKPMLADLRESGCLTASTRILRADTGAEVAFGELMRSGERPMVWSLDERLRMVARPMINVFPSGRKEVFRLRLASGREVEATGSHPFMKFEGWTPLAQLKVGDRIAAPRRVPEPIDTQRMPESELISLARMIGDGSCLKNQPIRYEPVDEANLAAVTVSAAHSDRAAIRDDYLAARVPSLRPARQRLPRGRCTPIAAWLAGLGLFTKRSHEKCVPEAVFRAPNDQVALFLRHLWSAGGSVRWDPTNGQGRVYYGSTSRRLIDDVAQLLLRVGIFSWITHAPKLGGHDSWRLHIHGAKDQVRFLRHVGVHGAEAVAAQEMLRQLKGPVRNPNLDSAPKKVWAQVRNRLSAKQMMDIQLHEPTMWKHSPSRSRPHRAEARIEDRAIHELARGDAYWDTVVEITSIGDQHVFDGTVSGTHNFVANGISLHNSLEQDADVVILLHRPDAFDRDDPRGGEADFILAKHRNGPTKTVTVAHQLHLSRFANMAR
# [8] = biological target: T3, Type-1 angiotensin II receptor (Homo sapiens, UniProt P30556); assay: AT1 receptor antagonists, dose response, selectivity assay for APJ receptor antagonist project, cell-based, uHTS hits (AID 463214); assay type: functional;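 further: antagonist potency against angiotensin II stimulated AT1 response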
# T3 sequence (P30556 whole entry): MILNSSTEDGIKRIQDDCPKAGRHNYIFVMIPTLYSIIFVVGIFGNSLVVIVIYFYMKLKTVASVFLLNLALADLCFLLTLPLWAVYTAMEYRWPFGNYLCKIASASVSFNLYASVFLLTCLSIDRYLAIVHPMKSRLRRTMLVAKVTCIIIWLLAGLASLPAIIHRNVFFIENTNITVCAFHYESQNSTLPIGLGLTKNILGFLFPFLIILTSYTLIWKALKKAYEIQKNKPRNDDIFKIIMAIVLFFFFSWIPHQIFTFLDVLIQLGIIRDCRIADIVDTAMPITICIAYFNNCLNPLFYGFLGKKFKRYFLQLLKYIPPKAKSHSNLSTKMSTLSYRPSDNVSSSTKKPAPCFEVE
# [9] = biological target: Beta-galactosidase (Escherichia coli, UniProt Q8VNN2); assay: PubChem AID 485352; assay type: functional
# Sequence of Beta-galactosidase (Q8VNN2 whole entry): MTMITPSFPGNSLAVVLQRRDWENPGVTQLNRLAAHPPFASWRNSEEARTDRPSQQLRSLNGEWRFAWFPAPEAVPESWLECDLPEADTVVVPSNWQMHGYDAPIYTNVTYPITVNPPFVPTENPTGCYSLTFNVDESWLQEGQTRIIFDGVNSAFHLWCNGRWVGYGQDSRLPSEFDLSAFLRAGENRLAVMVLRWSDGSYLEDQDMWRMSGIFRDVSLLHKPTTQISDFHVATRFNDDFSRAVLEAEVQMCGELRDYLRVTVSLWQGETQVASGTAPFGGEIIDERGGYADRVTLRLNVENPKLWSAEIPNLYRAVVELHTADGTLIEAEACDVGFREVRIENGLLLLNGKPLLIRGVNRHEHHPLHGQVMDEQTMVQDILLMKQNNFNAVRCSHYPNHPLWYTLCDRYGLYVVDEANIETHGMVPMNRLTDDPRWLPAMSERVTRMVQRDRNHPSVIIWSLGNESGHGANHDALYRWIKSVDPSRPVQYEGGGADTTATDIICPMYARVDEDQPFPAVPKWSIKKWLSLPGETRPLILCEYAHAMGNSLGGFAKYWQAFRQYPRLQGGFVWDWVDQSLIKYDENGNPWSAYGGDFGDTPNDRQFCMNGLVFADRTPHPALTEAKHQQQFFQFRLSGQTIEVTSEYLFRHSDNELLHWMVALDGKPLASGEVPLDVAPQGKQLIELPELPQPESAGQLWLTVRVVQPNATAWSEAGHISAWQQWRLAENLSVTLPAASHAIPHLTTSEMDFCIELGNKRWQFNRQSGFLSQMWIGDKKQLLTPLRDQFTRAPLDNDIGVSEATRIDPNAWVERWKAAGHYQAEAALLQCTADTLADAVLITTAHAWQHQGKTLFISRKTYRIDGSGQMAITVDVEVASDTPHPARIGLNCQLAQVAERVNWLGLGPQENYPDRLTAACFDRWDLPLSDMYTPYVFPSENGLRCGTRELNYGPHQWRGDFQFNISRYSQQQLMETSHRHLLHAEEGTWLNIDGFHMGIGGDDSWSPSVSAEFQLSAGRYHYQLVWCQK
# [10] = biological target: T4, Protein RecA (Mycobacterium tuberculosis, UniProt P9WHJ3); assay: Fluorescence Cell-Free Homogeneous Dose Retest to Identify Inhibitors of RecA-Intein Splicing Activity. [Related pubchem assays (depositor defined):AID2097, AID2223, AID489010, AID492950]; assay type: functional
# T4 sequence (P9WHJ3 whole entry): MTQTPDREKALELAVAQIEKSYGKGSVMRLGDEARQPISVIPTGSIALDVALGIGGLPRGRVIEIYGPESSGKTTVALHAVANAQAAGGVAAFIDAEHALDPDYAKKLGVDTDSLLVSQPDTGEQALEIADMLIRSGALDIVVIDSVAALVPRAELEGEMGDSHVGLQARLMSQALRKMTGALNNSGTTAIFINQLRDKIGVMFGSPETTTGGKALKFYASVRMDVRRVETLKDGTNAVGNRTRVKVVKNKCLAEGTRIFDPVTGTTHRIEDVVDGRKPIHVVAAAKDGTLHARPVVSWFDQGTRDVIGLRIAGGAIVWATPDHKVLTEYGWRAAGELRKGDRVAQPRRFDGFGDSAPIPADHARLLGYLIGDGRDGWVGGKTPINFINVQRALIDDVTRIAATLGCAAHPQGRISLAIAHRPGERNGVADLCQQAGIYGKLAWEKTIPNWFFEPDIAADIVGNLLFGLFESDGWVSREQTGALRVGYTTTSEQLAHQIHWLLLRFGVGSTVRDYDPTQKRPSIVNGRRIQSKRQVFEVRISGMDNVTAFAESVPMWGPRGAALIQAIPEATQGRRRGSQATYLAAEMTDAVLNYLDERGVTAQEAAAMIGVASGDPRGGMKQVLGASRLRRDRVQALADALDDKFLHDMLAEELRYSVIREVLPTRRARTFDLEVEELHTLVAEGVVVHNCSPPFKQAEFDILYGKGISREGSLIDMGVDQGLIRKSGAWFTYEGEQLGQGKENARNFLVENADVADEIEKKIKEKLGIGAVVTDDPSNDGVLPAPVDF
# [11] = biological target: T5, Short transient receptor potential channel 4 (Mus musculus, UniProt Q9QUQ5); assay: mouse TRPC4 channel inhibitors, dose response, cell-based, HEK293 TRPC4/mu-opioid, Fluo-4 calcium (AID 434942); assay type: functional;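 further: potency of inhibitors blocking the TRPC4 calcium response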
# T5 sequence (Q9QUQ5 whole entry): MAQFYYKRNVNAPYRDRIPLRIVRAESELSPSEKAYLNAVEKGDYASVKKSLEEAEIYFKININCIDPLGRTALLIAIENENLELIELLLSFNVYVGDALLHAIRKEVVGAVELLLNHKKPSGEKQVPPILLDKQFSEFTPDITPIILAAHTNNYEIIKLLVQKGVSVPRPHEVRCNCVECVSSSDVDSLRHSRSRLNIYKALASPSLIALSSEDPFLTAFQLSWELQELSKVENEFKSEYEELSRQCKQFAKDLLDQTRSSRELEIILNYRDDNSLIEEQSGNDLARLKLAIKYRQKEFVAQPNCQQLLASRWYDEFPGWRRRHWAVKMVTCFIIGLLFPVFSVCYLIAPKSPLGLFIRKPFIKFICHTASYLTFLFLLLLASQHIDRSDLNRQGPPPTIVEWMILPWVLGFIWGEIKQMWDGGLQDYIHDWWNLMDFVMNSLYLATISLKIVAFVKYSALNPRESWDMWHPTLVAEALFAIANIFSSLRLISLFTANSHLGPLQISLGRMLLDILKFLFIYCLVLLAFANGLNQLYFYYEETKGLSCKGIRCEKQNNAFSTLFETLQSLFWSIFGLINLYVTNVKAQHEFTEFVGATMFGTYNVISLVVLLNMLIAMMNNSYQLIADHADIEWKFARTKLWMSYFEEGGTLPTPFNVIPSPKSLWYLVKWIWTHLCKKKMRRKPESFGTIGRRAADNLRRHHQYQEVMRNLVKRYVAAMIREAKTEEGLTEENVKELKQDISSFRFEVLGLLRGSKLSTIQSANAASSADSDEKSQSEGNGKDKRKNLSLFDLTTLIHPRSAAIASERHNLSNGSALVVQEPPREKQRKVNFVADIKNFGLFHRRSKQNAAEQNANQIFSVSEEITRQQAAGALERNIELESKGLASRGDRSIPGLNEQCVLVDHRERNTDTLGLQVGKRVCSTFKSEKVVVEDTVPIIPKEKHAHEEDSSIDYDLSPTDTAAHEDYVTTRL
# [12] = microbe, parasite or virus in culture; assay type: functional; conditions: Mycobacterium tuberculosis
# [13] = HEp-2 cell cytotoxicity, dose response, cytotoxicity control for RSV inhibitor project, HTS (AID 2410); assay type: functional; conditions: human respiratory syncytial virus
# [14] = biological target: T6, High affinity choline transporter 1 (Homo sapiens, UniProt Q9GZV3); assay: CHT inhibitors, dose response, cell-based, 5-point CRC, membrane potential dye (AID 504840); assay type: functional
# T6 sequence (Q9GZV3 whole entry): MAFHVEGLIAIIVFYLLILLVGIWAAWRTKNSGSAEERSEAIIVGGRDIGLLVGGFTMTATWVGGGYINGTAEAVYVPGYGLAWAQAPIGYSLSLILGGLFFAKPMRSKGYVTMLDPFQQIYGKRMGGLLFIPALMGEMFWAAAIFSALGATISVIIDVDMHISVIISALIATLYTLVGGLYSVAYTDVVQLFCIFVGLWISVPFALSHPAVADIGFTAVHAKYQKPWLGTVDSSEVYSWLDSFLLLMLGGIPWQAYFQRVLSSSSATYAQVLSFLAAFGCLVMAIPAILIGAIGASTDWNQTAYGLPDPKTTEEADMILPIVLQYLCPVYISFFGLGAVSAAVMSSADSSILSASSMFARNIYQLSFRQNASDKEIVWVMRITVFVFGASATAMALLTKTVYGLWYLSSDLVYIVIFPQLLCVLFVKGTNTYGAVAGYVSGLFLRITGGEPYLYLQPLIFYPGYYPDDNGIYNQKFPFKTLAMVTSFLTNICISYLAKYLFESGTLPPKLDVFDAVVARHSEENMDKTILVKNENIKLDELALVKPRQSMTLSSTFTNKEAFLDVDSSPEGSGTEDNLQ
# [15] = biological target: Nonstructural protein 1 (Influenza A virus, UniProt Q194T2); assay type: functional, Influenza A virus (A/California/07/2009(H1N1))
# Sequence of Nonstructural protein 1 (Q194T2 whole entry): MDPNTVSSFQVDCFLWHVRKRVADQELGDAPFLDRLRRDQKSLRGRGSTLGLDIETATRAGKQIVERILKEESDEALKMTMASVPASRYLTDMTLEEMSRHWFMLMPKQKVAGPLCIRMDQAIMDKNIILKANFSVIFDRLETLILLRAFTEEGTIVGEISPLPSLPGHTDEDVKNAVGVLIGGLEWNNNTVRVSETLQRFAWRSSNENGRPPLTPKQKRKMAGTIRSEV
# [16] = biological target: T7, Heat shock factor protein 1 (Mus musculus, UniProt P38532); assay: HSF1 potentiators in luciferase reporter cells, confirmation, cell-based, NIH3T3, luminescence, dose retest (AID 435004); assay type: functional;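 further: stress induced by proteasome inhibitor MG132 added 30 min after compound; luciferase reporter driven by HSF1 response element in NIH3T3 cells; actives raise luminescence as potentiators of the MG132 stress response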
# T7 sequence (P38532 whole entry): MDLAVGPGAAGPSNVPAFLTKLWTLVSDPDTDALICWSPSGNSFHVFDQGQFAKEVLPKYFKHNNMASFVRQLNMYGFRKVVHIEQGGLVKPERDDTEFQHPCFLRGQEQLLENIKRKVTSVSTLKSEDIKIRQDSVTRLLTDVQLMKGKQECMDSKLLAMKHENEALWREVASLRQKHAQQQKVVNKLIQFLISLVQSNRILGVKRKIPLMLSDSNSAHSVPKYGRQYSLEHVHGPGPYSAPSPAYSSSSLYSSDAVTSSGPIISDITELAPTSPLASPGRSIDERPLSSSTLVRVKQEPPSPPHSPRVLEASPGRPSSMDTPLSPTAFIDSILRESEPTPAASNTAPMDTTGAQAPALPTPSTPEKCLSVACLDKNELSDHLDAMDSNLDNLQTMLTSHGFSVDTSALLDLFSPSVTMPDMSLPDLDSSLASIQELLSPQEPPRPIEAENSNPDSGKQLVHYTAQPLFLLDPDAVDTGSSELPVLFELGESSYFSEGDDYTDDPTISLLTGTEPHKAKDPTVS
structure (smiles),measurement,setting,value
COc1ccc(OC)c(/C=C/c2ccc3cccc(O)c3n2)c1,EC50,[1],> 150 µM (not active)
same,EC50,[2],0.323 µM (active)
same,EC50,[3],2.07 µM (active)
same,CC50,[4],9.5 µM (active)
same,EC50,[5],> 30 µM (not active)
same,EC50,[6],10.7 µM (active)
CC(C)OC(=O)CN1C(=O)C(=O)c2ccccc21,AC50,[7],14.3 µM (active)
same,IC50,[8],5.32 µM (active)
same,EC50,[9],> 40 µM (inactive)
same,EC50,[10],8.52 µM (active)
Cc1ccc(NC(=O)CNc2ccccc2CN(C)C2CCCCC2)cc1,EC50,[11],2.99 µM (active)
CN(C)C(CNC(=O)c1oc2ccccc2c1CSc1nc[nH]n1)c1ccco1 (configuration not stated),EC50,[11],8.41 µM (active)
CCN(CC)S(=O)(=O)c1ccc2oc(SCC(=O)Nc3cc(C)on3)nc2c1,EC50,[3],> 30 µM (not active)
same,IC50,[8],> 40 µM (not active)
same,EC50,[5],5.9 µM (active)
same,EC50,[9],> 40 µM (inactive)
same,CC50,[12],11.6 µM (active)
C=CCSc1nc2c(c(=O)[nH]c(=O)n2C)n1C/C=C(/C)Cl,CC50,[13],37.2 µM (active)
same,EC50,[11],2.37 µM (active)
NS(=O)(=O)c1ccc(CCNCc2ccccc2OCc2ccc(Cl)cc2)cc1,EC50,[11],6.68 µM (active)
same,IC50,[14],11.2 µM (active)
Cn1cccc1/C=C(/C#N)C(N)=S,IC50,[8],> 40 µM (not active)
same,EC50,[9],> 40 µM (inactive)
CCc1cc2c(=O)[nH]c(-c3ccccn3)nc2s1,IC50,[8],2.91 µM (active)
same,IC50,[15],14.3 µM (active)
same,EC50,[16],12.9 µM (active)
same,EC50,[9],> 40 µM (inactive)
